Laboratory results taken from patent US9321756B2, “Azole compounds as PIM inhibitors” (priority 2011, dated 2016).
pIC50: −log10 of the molar value. Like-named read-outs stand apart in the source and are kept apart here.

Legend:
[1] = target: full length recombinant Pim-1 (Homo sapiens (Human), UniProt P11309); experiment: Pim enzyme assay (HTRF, phosphorylation of biotinylated-BAD (S112) peptide), Pim-1; format: biochemical
[2] = target: full length recombinant Pim-2 (Homo sapiens (Human), UniProt Q9P1W9); experiment: Pim enzyme assay (HTRF, phosphorylation of biotinylated-BAD (S112) peptide), Pim-2; format: biochemical; conditions: read-out: Pim2_IC50
Chain of full length recombinant Pim-2 (Q9P1W9 whole entry): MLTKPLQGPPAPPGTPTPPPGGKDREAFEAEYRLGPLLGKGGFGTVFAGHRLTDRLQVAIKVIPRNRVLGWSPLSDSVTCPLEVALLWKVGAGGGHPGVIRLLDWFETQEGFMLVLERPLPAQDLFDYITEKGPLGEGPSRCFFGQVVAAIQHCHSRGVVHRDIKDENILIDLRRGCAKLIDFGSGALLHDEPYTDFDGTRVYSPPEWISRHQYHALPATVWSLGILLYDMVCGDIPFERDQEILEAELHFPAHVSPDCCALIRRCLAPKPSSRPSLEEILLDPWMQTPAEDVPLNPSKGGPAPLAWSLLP

[3] = target: full length recombinant Pim-3 (Homo sapiens (Human), UniProt Q86V86); experiment: Pim enzyme assay (HTRF, phosphorylation of biotinylated-BAD (S112) peptide), Pim-3; format: biochemical; conditions: Pim-3 enzyme assay; read-out: Pim3 IC50
In short: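 IC50 values were fitted with a 4-parameter logistic model to percent-of-control HTRF signal (Eu anti-phospho-BAD S112 antibody/streptavidin-APC). Reactions used full-length Pim-3 and biotin-BAD (S112) peptide, ran 1 h 30 min at RT (22 °C) in Hepes pH 7.0 buffer with BSA and DTT, and were stopped by 3 mM EDTA.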

[4] = system: Pim-1 stably transfected U2OS human osteogenic sarcoma line; experiment: Pim cell assay U2OS (phospho-BAD normalized against total BAD), Pim-1 transfected; format: cell-based; conditions: Homo sapiens, U2OS
[5] = system: Pim-2 stably transfected U2OS human osteogenic sarcoma line; experiment: Pim cell assay U2OS (phospho-BAD normalized against total BAD), Pim-2 transfected; format: cell-based; conditions: Homo sapiens, read-out: U2OS Pim2_Cell_IC50
KMS-12-BM myeloma cells = experiment: Pim cell assay KMS12 (phospho-BAD and total BAD); format: cell-based; conditions: Homo sapiens, 2 h; for pIC50: read-out: KMS12_IC50
Method: The assay for determination of the antiproliferative activity of multiple Pim inhibitors in the KMS-12-BM myeloma cells measures levels of phospho-BAD and total BAD. It was conducted as follows: […] The cells were then incubated overnight at 37° C., 5% CO2. […] This dilution in DMSO was then diluted again into cell growth medium. […] The cell plates were then incubated with compound for 2 hours at 37° C., 5% CO2. After a two h incubation, the compound-containing medium was removed. […] The cell plates containing lysis buffer were then immediately stored at -70° C. These prepared lysates were then assayed for phospho and total BAD according to the manufacturer's protocols (Meso Scale Diagnostics, Cat#[…]-3 & #[…]-3). The plates were read on the MSD Sector Imager 6000, and results were calculated according to the assay protocols ((% Phosphoprotein=((2×Phospho signal)/(Phospho signal+Total signal))×100)).

[6] = Pim-1 enzyme assay, read-out: Pim_1_IC50
[7] = read-out: U2OS Pim1_Cell_IC50, U2OS cells, Pim-1 transfected
[8] = HTRF, 10-point curve, high dose 1 uM, 2 h at RT, read-out: Pim_1_IC50
[9] = HTRF, 10-point curve, high dose 1 uM, 45 min at RT

Chain of full length recombinant Pim-1 (P11309 whole entry): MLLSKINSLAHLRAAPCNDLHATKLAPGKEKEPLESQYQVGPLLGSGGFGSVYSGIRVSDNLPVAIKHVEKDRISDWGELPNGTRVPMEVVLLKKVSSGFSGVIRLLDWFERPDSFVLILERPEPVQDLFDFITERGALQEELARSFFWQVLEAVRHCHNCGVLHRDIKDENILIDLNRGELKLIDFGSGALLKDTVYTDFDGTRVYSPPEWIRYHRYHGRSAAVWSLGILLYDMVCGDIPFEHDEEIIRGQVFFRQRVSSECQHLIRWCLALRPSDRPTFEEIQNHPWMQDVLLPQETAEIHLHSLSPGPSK

pIC50 [1, 6] | pIC50 ([2]; Pim-2 enzyme assay) | pIC50 [3] | pIC50 [1, 8] | pIC50 [2, 9] | pIC50 (KMS-12-BM myeloma cells) | SMILES | pIC50 ([5]; U2OS cells, Pim-2 transfected) | pIC50 ([4]; read-out: U2OS Pim1_Cell_IC50) | other results
7.59 | 7.04 | 8.00 |  |  |  | CNc1nnc(-c2ccc3[nH]cc(-c4cccc(N5CCOCC5)n4)c3c2)s1 [Example 214, N-methyl-5-(3-(6-(4-morpholinyl)-2-pyridinyl)-1H-indol-5-yl)-1,3,4-thiadiazol-2-amine] | 4.82 |  | pIC50 [4, 7]: 6.23
7.54 | 7.09 | 8.17 |  |  |  | CNc1nnc(-c2ccc3[nH]cc(-c4cccc(N5CCCC5=O)n4)c3c2)s1 [Example 229, 1-(6-(5-(5-(methylamino)-1,3,4-thiadiazol-2-yl)-1H-indol-3-yl)-2-pyridinyl)-2-pyrrolidinone] | < 4.50 | 6.51 | 
7.51 | 7.20 | 8.15 |  |  |  | CCOc1cccc(-c2c[nH]c3ccc(-c4nnc(NC)s4)cc23)n1 [Example 230, 5-(3-(6-ethoxy-2-pyridinyl)-1H-indol-5-yl)-N-methyl-1,3,4-thiadiazol-2-amine] | < 4.50 | 6.04 | 
 | 6.86 | 8.00 |  |  |  | CNc1nnc(-c2ccc3[nH]cc(-c4cncc(N(C)C)n4)c3c2)s1 [Example 231, N,N-dimethyl-6-(5-(5-(methylamino)-1,3,4-thiadiazol-2-yl)-1H-indol-3-yl)-2-pyrazinamine] |  | 6.42 | pIC50 [1]: 7.42; pIC50 ([5]; U2OS): < 4.50
6.64 | 6.11 | 7.20 |  |  |  | CNc1nnc(-c2ccc3[nH]cc(-c4ccccc4F)c3c2)s1 [Example 235, 5-(3-(2-fluorophenyl)-1H-indol-5-yl)-N-methyl-1,3,4-thiadiazol-2-amine] | < 4.50 | 5.27 | 
6.65 | 5.55 | 7.07 |  |  |  | CSc1nnc(-c2ccc3[nH]cc(-c4cccc(N5CCOCC5)n4)c3c2)s1 [Example 243, 5-(5-(methylsulfanyl)-1,3,4-thiadiazol-2-yl)-3-(6-(4-morpholinyl)-2-pyridinyl)-1H-indole] | < 4.50 |  | pIC50 [4, 7]: 5.20
7.61 | 7.07 | 7.82 |  |  |  | CC(C)Oc1cccc(-c2c[nH]c3ccc(-c4nnco4)cc23)n1 [Example 244, 3-(6-(1-methylethoxy)-2-pyridinyl)-5-(1,3,4-oxadiazol-2-yl)-1H-indole] | 4.92 | 6.51 | 
8.38 | 7.67 | 8.15 |  |  |  | c1cc2[nH]cc(-c3cncc(C4CC4)n3)c2cc1-c1nnc(N2CCNCC2)o1 [Example 246, 3-(6-cyclopropyl-2-pyrazinyl)-5-(5-(1-piperazinyl)-1,3,4-oxadiazol-2-yl)-1H-indole] | < 4.50 | 6.35 | 
8.87 | 8.98 | 9.46 |  |  |  | c1cc2[nH]cc(-c3cncc(C4CC4)n3)c2cc1-c1nnc(NC2CNC2)o1 [Example 247, N-3-azetidinyl-5-(3-(6-cyclopropyl-2-pyrazinyl)-1H-indol-5-yl)-1,3,4-oxadiazol-2-amine] | < 4.50 | 5.71 | 
8.86 | 8.86 | 9.36 |  |  |  | CC(C)Nc1nnc(-c2ccc3[nH]cc(-c4nccc(C5CC5)n4)c3c2)o1 [Example 264, 5-(3-(4-cyclopropyl-2-pyrimidinyl)-1H-indol-5-yl)-N-(1-methylethyl)-1,3,4-oxadiazol-2-amine] | 6.62 | 7.59 | 
 |  |  | 8.62 | 8.73 | 6.13 | CC(C)Nc1nnc(-c2cc3c(-c4nccc(C5CC5)n4)c[nH]c3cc2F)o1 [Example 279, 5-(3-(4-cyclopropyl-2-pyrimidinyl)-6-fluoro-1H-indol-5-yl)-N-(1-methylethyl)-1,3,4-oxadiazol-2-amine] |  |  | 
 |  |  |  | 8.09 | 5.42 | CC(C)Nc1nnc(-c2cc3c(-c4cncc(C5CC5)n4)c[nH]c3cc2F)o1 [Example 280, 5-(3-(6-cyclopropyl-2-pyrazinyl)-6-fluoro-1H-indol-5-yl)-N-(1-methylethyl)-1,3,4-oxadiazol] |  |  | pIC50 [1]: 8.33
 |  |  | 8.92 | 8.67 | 5.89 | CC(C)Nc1nnc(-c2ccc3[nH]cc(-c4ncc(C(N)=O)c(C5CC5)n4)c3c2)o1 [Example 281, 4-cyclopropyl-2-(5-(5-((1-methylethyl)amino)-1,3,4-oxadiazol-2-yl)-1H-indol-3-yl)-5-pyrimidinecarboxamide] |  |  | 
 |  |  | 8.61 | 7.84 | 5.38 | CC(C)Nc1nc(-c2c[nH]c3ccc(-c4nnc(NC(C)C)o4)cc23)cc(=O)[nH]1 [Example 288, 2-(isopropylamino)-6-(5-(5-(isopropylamino)-1,3,4-oxadiazol-2-yl)-1H-indol-3-yl)pyrimidin-4(3H)-one] |  |  | 
 |  |  | 7.27 | 7.59 | 5.84 | CC(C)Nc1nnc(-c2ccc3[nH]cc(NC(=O)C4CC4)c3c2)o1 [Example 291, N-(5-(5-(isopropylamino)-1,3,4-oxadiazol-2-yl)-1H-indol-3-yl)cyclopropanecarboxamide] |  |  | 
 |  |  | 8.92 | 8.65 | 5.84 | CC(C)Nc1nnc(-c2ccc3[nH]cc(-c4cc(=O)[nH]c(C5CC5)n4)c3c2)o1 [Example 300, 2-cyclopropyl-6-(5-(5-((1-methylethyl)amino)-1,3,4-oxadiazol-2-yl)-1H-indol-3-yl)-4(3H)-pyrimidinone] |  |  | 
 |  |  | 8.60 | 8.33 | 6.02 | CC(C)Nc1nnc(-c2ccc3[nH]cc(-c4ccnc(C5CC5)n4)c3c2)o1 [Example 301, 5-(3-(2-cyclopropyl-4-pyrimidinyl)-1H-indol-5-yl)-N-(1-methylethyl)-1,3,4-oxadiazol-2-amine] |  |  | 

SMILES | pIC50 [1, 6] | pIC50 ([2]; Pim-2 enzyme assay) | pIC50 [3] | pIC50 [1, 8] | pIC50 [2, 9] | pIC50 (KMS-12-BM myeloma cells) | pIC50 ([5]; U2OS cells, Pim-2 transfected) | pIC50 ([4]; read-out: U2OS Pim1_Cell_IC50) | other results
CS(=O)(=O)c1nnc(-c2ccc3[nH]cc(-c4cccc(N5CCOCC5)n4)c3c2)s1 [Example 215, 5-(5-(methylsulfonyl)-1,3,4-thiadiazol-2-yl)-3-(6-(4-morpholinyl)-2-pyridinyl)-1H-indole] | 6.68 | 5.06 | 6.77 |  |  |  | < 4.50 | < 4.50 | 
CNc1nnc(-c2ccc3[nH]cc(-c4ccc5c(c4)OC(C)(C)C5)c3c2)s1 [Example 216, 5-(3-(2,2-dimethyl-2,3-dihydro-1-benzofuran-6-yl)-1H-indol-5-yl)-N-methyl-1,3,4-thiadiazol-2-amine] | 6.73 | 5.73 | 7.04 |  |  |  | < 4.50 | 5.75 | 
CNc1nnc(-c2ccc3[nH]cc(-c4cncc(N5CCCCC5)n4)c3c2)s1 [Example 227, N-methyl-5-(3-(6-(1-piperidinyl)-2-pyrazinyl)-1H-indol-5-yl)-1,3,4-thiadiazol-2-amine] | 8.30 | 7.39 | 8.85 |  |  |  | 5.00 | 6.92 | 
CNc1nnc(-c2ccc3[nH]cc(-c4cccc(-n5cnc(C)c5)n4)c3c2)s1 [Example 228, N-methyl-5-(3-(6-(4-methyl-1H-imidazol-1-yl)-2-pyridinyl)-1H-indol-5-yl)-1,3,4-thiadiazol-2-amine] | 7.88 | 8.08 | 8.82 |  |  |  | < 4.50 | < 4.50 | 
c1ccc(-c2nnc(-c3ccc4[nH]cc(-c5cncc(C6CC6)n5)c4c3)o2)cc1 [Example 254, 3-(6-cyclopropyl-2-pyrazinyl)-5-(5-phenyl-1,3,4-oxadiazol-2-yl)-1H-indole] | 6.76 | < 6.00 | 6.86 |  |  |  | 6.09 | < 4.80 | 
CC(C)Nc1nccc(-c2c[nH]c3ccc(-c4nnc(NC(C)C)o4)cc23)n1 [Example 287, N-isopropyl-5-(3-(2-(isopropylamino)pyrimidin-4-yl)-1H-indol-5-yl)-1,3,4-oxadiazol-2-amine] |  |  |  | 8.38 |  |  |  |  | pIC50 [2]: 7.95; IC50 (KMS-12-BM myeloma cells; read-out: KMS12_IC50 (uM)): 1.56 µM
